This is an account of results in US5043179A, “Triol triester derivatives as low calorie fat mimetics” (Nabisco Brands, Inc., priority 1990, dated 1991).

SMILES strings stand for the structures.

The nature of data set [1]: in vitro digestibility screen using pancreatic lipase (TLC analysis). Particulars: pig, two-hour incubation, 37° C., pH 7.1, TLC, read-out: hydrolyzed by pancreatic lipase. It is filed as in vitro ADME, porcine. As for the experimental part:
This example outlines the procedure for screening the in vitro digestibility of the triester derivatives of this invention using pancreatic lipase.
(§1) 1. Buffer: A pH 7.1 phosphate buffer is prepared by dissolving 6.8 g. KH2 PO4 in 1 L. of millipore filtered water (to yield 0.05 M phosphate). Fifty mg. Ca(NO3)2 and 5.0 g. cholic acid (Na^+ salt, an ox bile isolate from Sigma) are added to give 0.3 mM Ca++ and 0.5% cholic acid in 0.05 M phosphate. The pH is adjusted to approximately 7.1 with solid NaOH. Several drops of Baker "Resi-analyzed " toluene are added to prevent bacterial growth during storage at 3°-5° C.
(§2) 2. Lipase: About 15 mg/mL commercial porcine pancreatic lipase from U.S. Biochemical Corporation is dissolved in buffer.
3. Substrates and Standards: A 1.0 mL volumetric flask is charged with an amount of lipid substrate (test substance or standard) calculated to give a concentration of 200 nanomoles per microliter in Baker "Resi-analyzed " toluene. (The proper concentration may be approximated by doubling the molecular weight of the lipid in question, dividing by 10, and diluting to the mark; this yields about 200 nanomoles per microliter.) This preparation affords the substrate to be used in the hydrolysis reactions. […]

The next data set deals with nonspecific lipase. Particulars: pancreatic lipase inhibited by taurocholate; cited from earlier work.
The conditions of data set [2]: fed to rats; cited from earlier work.
In the next data set the test system is pancreatic lipase. Kind of data set: lipase assay as in Example 7, with super fluid chromatography to separate hydrolysis products. It counts as in vitro ADME, porcine. Particulars: one hour incubation. How it is done:
as §1, §2
(§3) 3. Substrates and Standards: A 1.0 mL volumetric flask is charged with an amount of lipid substrate (test substance or standard) calculated to give a concentration of 200 nanomoles per microliter in Baker "Resi-analyzed " toluene. (The proper concentration may be approximated by doubling the molecular weight of the lipid in question, dividing by 10, and diluting to the mark; this yields about 200 nanomoles per microliter.) This preparation affords the substrate to be used in the hydrolysis reactions.
(§4) In a 25 mL Erlenmeyer, emulsify 20 mL buffer and 40 microliters of substrate using an ultrasonic disrupter at a microtip maximum setting for approximately 10 seconds. […] Place in a 37° C. water bath and stir vigorously. After temperature equilibration, add 40 microliters of enzyme solution and start timing. […]

For data set [3] the following is noted: cited from earlier work.
A short description of data set [4]: lipase assay as in Example 7, with super fluid chromatography to separate hydrolysis products. Particulars: pig, pancreatic lipase, pH 7.1, one hour incubation, read-out: hydrolyzed by pancreatic lipase. It is filed as in vitro ADME, porcine. How it is done: as §1, §2, §3, §4
Data set [5] is described as follows: caloric availability by in vivo animal feeding study (body weight gain). More on the design: species or system Sprague-Dawley rats. Particulars: rats, diet of 50% fort and 21% test compound, 14 days. The text has this: This example illustrates how the triol triesters of this invention are screened for caloric availability by a carefully controlled in vivo animal feeding study.
An experimental relationship between total calories ingested and animal body weight gain is established by monitoring the body weight gain associated with consumption of a nutritionally balanced diet containing varying concentrations of a reference substance such as corn oil which has a known caloric availability. Correlations between total calories ingested and body weight gain are excellent (r=0.99).
Caloric availability of an unknown substance is evaluated by substituting a specific weight of the unknown substance for the reference substance and observing the body weight gain. The gain in body weight is equated to a total number of calories using the correlation previously established for the reference data. The estimated number of calories ingested are divided by the weight of unknown substance to give the apparent calories per gram for the unknown substance. Generally speaking, in these bioavailability studies, the degree of perianal pelt soiling correlates with reduced bioavailability.
The test animals are six-week-old male Sprague-Dawley rats obtained from the Portage, Michigan facility of the Charles River Laboratories, Inc. After acclimation for 15 days, the test duration is 14 days. […]

For the compound `CCCCCCCC/C=C\CCCCCCCC(=O)OCC(COC(=O)CCCCCCC/C=C\CCCCCCCC)OC(=O)CCCCCCC/C=C\CCCCCCCC` [triolein], the metabolised at 2 h in data set [1] was around 90%. Further, in the data set on nonspecific lipase, the “hydrolysis by nonspecific lipase” value is “hydrolyze”. Further, the “absorption in fat balance study” value in data set [2] was “absorbed”.

In the case of `CCCCCCCC/C=C\CCCCCCCC(=O)OC` [methyl oleate], the “hydrolysis by nonspecific lipase” value in the data set with nonspecific lipase is recorded as “hydrolyze”. Besides, the “absorption in fat balance study” value in data set [2] is reported as “absorbed”.

On to `CCCCCCCCCCCCCC(=O)OCC(COC(=O)CCCCCCCCCCCCC)OC(=O)CCCCCCCCCCCCC` [trimyristin], for which, in the data set on pancreatic lipase, the “hydrolysis by pancreatic lipase (in words)” value was “almost fully hydrolyzed”.

In the case of `CCCCCCCC/C=C\CCCCCCCC(=O)OC[C@H](OC(=O)CCCCCCC/C=C\CCCCCCCC)[C@@H](OC(=O)CCCCCCC/C=C\CCCCCCCC)[C@H](OC(=O)CCCCCCC/C=C\CCCCCCCC)[C@@H](COC(=O)CCCCCCC/C=C\CCCCCCCC)OC(=O)CCCCCCC/C=C\CCCCCCCC` [sorbitol hexaoleate], the “absorption in fat balance study” value in data set [2] is given as “not absorbed”.

Turning to `CCCCCCCC/C=C\CCCCCCCC(=O)OCCOC(=O)CCCCCCC/C=C\CCCCCCCC` [ethylene glycol dioleate], the “hydrolysis by nonspecific lipase” value in the data set with nonspecific lipase was “hydrolyze”. In data set [2], the “absorption in fat balance study” value is recorded as “absorbed”.

On to `CCCCCCCC/C=C\CCCCCCCC(=O)OC[C@H]1O[C@@](COC(=O)CCCCCCC/C=C\CCCCCCCC)(O[C@H]2O[C@H](COC(=O)CCCCCCC/C=C\CCCCCCCC)[C@@H](OC(=O)CCCCCCC/C=C\CCCCCCCC)[C@H](OC(=O)CCCCCCC/C=C\CCCCCCCC)[C@H]2OC(=O)CCCCCCC/C=C\CCCCCCCC)[C@@H](OC(=O)CCCCCCC/C=C\CCCCCCCC)[C@@H]1OC(=O)CCCCCCC/C=C\CCCCCCCC` [sucrose octaoleate], for which the “absorption in fat balance study” value in data set [2] is “not absorbed”.

Take `CCCCCCCC/C=C\CCCCCCCC(=O)OC[C@H](OC(=O)CCCCCCC/C=C\CCCCCCCC)[C@@H](COC(=O)CCCCCCC/C=C\CCCCCCCC)OC(=O)CCCCCCC/C=C\CCCCCCCC` [erythritol tetraoleate]: in the data set with nonspecific lipase, the “hydrolysis by nonspecific lipase” value is recorded as “stepwise hydrolysis”. The “hydrolysis in vivo (free tagged erythritol in urine)” value in data set [3] (rats) is listed as “hydrolyzed in vivo”. The “rate of appearance of fatty acids in the lymph” value in data set [3] (thoracic duct cannulated rats) was “slower rate than glycerol trioleate”. Moreover, the “absorption in fat balance study” value in data set [2] is reported as “absorbability decreased”.

On to `CCCCCCCCCCCCCC(=O)OCCCCC(COC(=O)CCCCCCCCCCCCC)OC(=O)CCCCCCCCCCCCC` (stereo not shown) [Example 5, 1,2,6-hexane trimyristate], for which the metabolised at 1 h in data set [4] was around 20%.

For `CCCCCCCC/C=C\CCCCCCCC(=O)OCC(COC(=O)CCCCCCC/C=C\CCCCCCCC)(COC(=O)CCCCCCC/C=C\CCCCCCCC)COC(=O)CCCCCCC/C=C\CCCCCCCC` [pentaerythritol tetraoleate], in data set [2], the “absorption in fat balance study” value is “absorbability decreased”.

As to `CCCCCCCC/C=C\CCCCCCCC(=O)OC[C@H](OC(=O)CCCCCCC/C=C\CCCCCCCC)[C@@H](OC(=O)CCCCCCC/C=C\CCCCCCCC)[C@@H](COC(=O)CCCCCCC/C=C\CCCCCCCC)OC(=O)CCCCCCC/C=C\CCCCCCCC` [xylitol pentaoleate], the “absorption in fat balance study” value in data set [2] is “absorbability decreased”.

`CCCCCCCC/C=C\CCCCCCCC(=O)OCCC(COC(=O)CCCCCCC/C=C\CCCCCCCC)OC(=O)CCCCCCC/C=C\CCCCCCCC` (stereo not shown) [Example 4, 1,2,4-Butane trioleate]: the metabolised at 2 h in data set [1] is around 50%. Besides, in data set [5], the “caloric availability (kcal/gram yielded upon being metabolized)” value is listed as “about 7.7 kcal/gram”.
